Source: paper PMC4105567, “Aurora Kinases as Druggable Targets in Pediatric Leukemia: Heterogeneity in Target Modulation Activities and Cytotoxicity by Diverse Novel Therapeutic Agents” (PLoS ONE, 2014)
Like-named read-outs stand apart in the source and are kept apart here.

How the values were obtained:
[1] = system: Aurora-C; conditions: read-out: Targets (IC50 Value): Aurora-C; literature values; ref [10],[40],[44]–[64] as listed per inhibitor in Table 1; cited from earlier work
[2] = system: Molm13 AML cell line; assay: Cytotoxicity assay, Molm13; format: cell-based, human; conditions: Homo sapiens, MOLM-13, 96 h, four days in culture, Alamar blue assay or automated microscopy, ± SD, three experiments
Method: (§1) Cell lines were cultured in Opti-MEM medium (Gibco, Life Technologies Corporation, Burlington, Ontario) supplemented with 10% heat inactivated fetal bovine serum (FBS) (Gibco), 100 units/ml penicillin and 100 units/ml streptomycin (Gibco) and 0.05 mM 2-mercaptoethanol (Sigma-Aldrich, Oakville, Ontario) in T25 flasks (Nalge Nunc, Rochester, New York) or T75 flasks (Corning Incorporated, Corning, New York). All cell cultures were maintained at 37°C in a humidified incubator with 5% CO2.
(§2) For cytotoxicity profiling of Aurora kinase inhibitors against leukemia cell lines, inhibitors or vehicle control (DMSO, Sigma-Aldrich) were diluted in 100 µl of Opti-MEM per well in 96 well plates (Grenier Bio-One, Monroe, North Carolina) in triplicate at final concentrations ranging from 1×10^−6 to 10 µM. 1×10^4 cells per well were seeded and plates were incubated for 4 days. Following incubation for 4 days, cell survival was quantified by Alamar blue assay (Invitrogen) or automated inverted microscopy using the Celigo Cell Cytometer (Cyntellect, San Diego, California). […] During this period of incubation, the absorbance at 570–620 nm was measured (Opsys MR Plate Reader, Dynex Technologies, Chantilly, Virginia) at various time points, depending on the cell line or sample. Percent survival was calculated by comparing the absorbance ratio of the test well to the control well multiplied by 100%, as indicated in the following formula: […]
(§3) For automated inverted microscopy, the number of cells in each well was determined using the direct cell counting application as described previously. Briefly, following adjustment of image acquisition settings for bright-field imaging, the wells containing cells and appropriate dilutions of inhibitors were individually scanned. Based on these images, analysis parameters, including intensity threshold and cell diameter, were modified for optimal inclusion of viable cells in treated and control wells. These parameters were applied for subsequent replicates involving the same leukemia cell line or sample. The percent survival was then calculated as a ratio of the number of cells in treated wells to the number of cells in control wells multiplied by 100%. Given that Aurora kinase inhibitors interfere with cytokinesis, cells that are committed to death may still contain enlarging but intact cytoplasmic content before the eventual loss of cytoplasmic membrane integrity. The accuracy of Alamar blue assay may be, in theory, affected by the timing of these events.

[3] = system: HL-60 APML cell line; assay: Cytotoxicity assay, HL-60; format: cell-based, human; conditions: Homo sapiens, 96 h; APML cell line HL-60; four days in culture; Alamar blue assay or automated microscopy; ± SD, three experiments
Method: as §1, §2, §3

[4] = system: Patient #4 infant leukemia primary cells; assay: Cytotoxicity assay, primary sample Patient #4; format: cell-based, human; conditions: Homo sapiens, 96 h, four days in culture, Alamar blue assay or automated microscopy, one complete study
Method: (§4) These include B-ALL (Patient #1), relapsed AML (Patient #2), AML/CML (Patient #3), infant ALL (Patient #4), and initial ALL presenting with secondary AML (Patient #5). […] The diluted sample was then layered on a Ficoll-Paque (GE Healthcare, Piscataway, New Jersey) gradient at a 1∶2 ratio of Ficoll to diluted sample. Samples were then centrifuged 1800 rpm for 20 minutes at room temperature. The buffy coat was removed with a pipette and transferred to a new centrifuge tube and diluted with PBS. After an additional centrifugation at 1200 rpm, the white blood cell pellet was washed with PBS and centrifuged one last time. Cells were re-suspended in Opti-MEM and viable cells were counted using trypan blue (Invitrogen, Life Technologies Corporation, Burlington, Ontario) exclusion on a haemocytometer. An identical protocol was followed for the isolation of white blood cells, referred to as “normal lymphocytes” in the following paragraphs, from healthy volunteers. Samples grown in culture for up to six months were cultured in Opti-MEM medium supplemented with 10% heat inactivated FBS, penicillin/streptomycin and 2-mercaptoethanol.
as §2, §3

[5] = system: Aurora-A; parameters: method as in earlier work; conditions: read-out: Targets (IC50 Value): Aurora-A; cited from earlier work
[6] = system: Patient #3 AML/CML primary leukemia cells; assay: Cytotoxicity assay, primary sample Patient #3; format: cell-based, human; conditions: Homo sapiens, 96 h, four days in culture, Alamar blue assay or automated microscopy, one complete study
Method: as §4, §2, §3

[7] = system: Bone Marrow Stroma; assay: Cytotoxicity assay, bone marrow stroma; format: cell-based, human; conditions: Homo sapiens, 96 h; bone marrow stroma (control for non-leukemia cytotoxicity); four days in culture; ± SD, three experiments
Method: as §2, §3

[8] = system: B1 B-ALL cell line; assay: Cytotoxicity assay, B1; format: cell-based, human; conditions: Homo sapiens, 96 h, four days in culture, Alamar blue assay or automated microscopy, ± SD, three experiments
Method: as §1, §2, §3

[9] = system: MV4-11 AML cell line; assay: Cytotoxicity assay, MV4-11; format: cell-based, human; conditions: Homo sapiens, 96 h; AML cell line MV4-11; four days in culture; Alamar blue assay or automated microscopy; ± SD, three experiments
Method: as §1, §2, §3

[10] = system: HL-60 RA APML cell line; assay: Cytotoxicity assay, HL-60 RA; format: cell-based, human; conditions: Homo sapiens, 96 h; APML cell line HL-60 RA; four days in culture; Alamar blue assay or automated microscopy; ± SD, three experiments
Method: as §1, §2, §3

[11] = system: Molt-3 T-ALL cell line; assay: Cytotoxicity assay, Molt-3; format: cell-based, human; conditions: Homo sapiens, 96 h; T-ALL cell line Molt-3; four days in culture; Alamar blue assay or automated microscopy; ± SD, three experiments
Method: as §1, §2, §3

[12] = system: normal cells versus leukemia cell lines; assay: Comparison of cytotoxicity IC50 values, normal cells versus leukemia cell lines; format: cell-based, human; conditions: normal lymphocytes and bone marrow stroma versus leukemia cell lines of Table 2
Method: as §2, §3

[13] = system: C1 B-ALL cell line; assay: Cytotoxicity assay, C1; format: cell-based, human; conditions: Homo sapiens, 96 h, four days in culture, Alamar blue assay or automated microscopy, ± SD, three experiments
Method: as §1, §2, §3

[14] = system: TIB-202 AML cell line; assay: Cytotoxicity assay, TIB-202; format: cell-based, human; conditions: Homo sapiens, 96 h; AML cell line TIB-202; four days in culture; Alamar blue assay or automated microscopy; ± SD, three experiments
Method: as §1, §2, §3

[15] = system: UOCB1 B-ALL cell line; assay: Cytotoxicity assay, UOCB1; format: cell-based, human; conditions: Homo sapiens, UoC-B1, 96 h, four days in culture, Alamar blue assay or automated microscopy, ± SD, three experiments
Method: as §1, §2, §3

[16] = system: Nalm6 B-ALL cell line; assay: Cytotoxicity assay, Nalm6; format: cell-based, human; conditions: Homo sapiens, NALM-6, 96 h, four days in culture, Alamar blue assay or automated microscopy, ± SD, three experiments
Method: as §1, §2, §3

[17] = system: KOPN8 B-ALL cell line; assay: Cytotoxicity assay, KOPN8; format: cell-based, human; conditions: Homo sapiens, KOPN-8, 96 h, four days in culture, Alamar blue assay or automated microscopy, ± SD, three experiments
Method: as §1, §2, §3

[18] = system: Patient #1 B-ALL primary leukemia cells; assay: Cytotoxicity assay, primary sample Patient #1; format: cell-based, human; conditions: Homo sapiens, 96 h, four days in culture, Alamar blue assay or automated microscopy, one complete study
Method: as §4, §2, §3

[19] = system: SEM B-ALL cell line; assay: Cytotoxicity assay, SEM; format: cell-based; conditions: Homo sapiens, 96 h, four days in culture, Alamar blue assay or automated microscopy, ± SD, three experiments
Method: as §1, §2, §3

[20] = system: Patient #5 ALL/AML primary leukemia cells; assay: Cytotoxicity assay, primary sample Patient #5; format: cell-based, human; conditions: Homo sapiens, 96 h, read-out: IC50, Patient #5 ALL/AML
Method: as §4, §2, §3

[21] = system: Normal Lymphocytes; assay: Cytotoxicity assay, normal lymphocytes; format: cell-based, human; conditions: Homo sapiens, Lymphocyte, 96 h; normal lymphocytes (control for non-leukemia cytotoxicity); four days in culture; ± SD, three experiments
Method: as §4, §2, §3

[22] = system: Patient #2 relapsed AML primary leukemia cells; assay: Cytotoxicity assay, primary sample Patient #2; format: cell-based, human; conditions: Homo sapiens, 96 h, four days in culture, Alamar blue assay or automated microscopy, one complete study
Method: as §4, §2, §3

[23] = system: NB4 APML cell line; assay: Cytotoxicity assay, NB4; format: cell-based, human; conditions: Homo sapiens, 96 h, four days in culture, Alamar blue assay or automated microscopy, ± SD, three experiments
Method: as §1, §2, §3

[24] = system: Aurora-B; parameters: method as in earlier work; conditions: literature values; ref [10],[22],[27],[40],[44]–[64] as listed per inhibitor in Table 1; read-out: Targets (IC50 Value): Aurora-B; cited from earlier work
[25] = system: CEM T-ALL cell line; assay: Cytotoxicity assay, CEM; format: cell-based, human; conditions: Homo sapiens, 96 h, four days in culture, Alamar blue assay or automated microscopy, ± SD, three experiments
Method: as §1, §2, §3

Row | Structure (SMILES) | IC50 [1] [nM] | IC50 [2] [nM] | IC50 [3] [nM] | IC50 [4] [nM] | IC50 [6] [nM] | IC50 [7] [nM] | IC50 [8] [nM] | IC50 [9] [nM] | IC50 [10] [nM] | IC50 [11] [nM] | IC50 values for the normal cells compared with IC50 values for the leukemia cell lines (potential therapeutic window) [12] | IC50 [13] [nM] | IC50 [14] [nM] | IC50 [15] [nM] | IC50 [16] [nM] | IC50 [17] [nM] | IC50 [18] [nM] | IC50 [19] [nM] | IC50 [21] [nM] | IC50 [22] [nM] | other results
1 | Cc1cc(Nc2cc(N3CCN(C)CC3)nc(Sc3ccc(NC(=O)C4CC4)cc3)n2)[nH]n1 [VX-680] | […] | 4 ± 2 | 60 ± 5 | 1000 | 2000 | > 10000 | 5 ± 3 | 2 ± 1 | 1 ± 0.5 | 0.9 | higher than the IC50 values for the leukemia cell lines | 0.4 | 7 ± 3 | < 0.001 | 0.2 | 3 ± 0.5 | 0.09 | 60 ± 20 | 5000 ± 900 | 100 | IC50 [5]: […]; IC50 ([20]; primary sample, four days in culture, Alamar blue assay or automated microscopy, one complete study): 0.5 nM; IC50 [23]: 7 ± 2 nM
2 | CCc1cccc(CC)c1NC(=O)N1Cc2n[nH]c(NC(=O)c3ccc(N4CCN(C)CC4)cc3)c2C1 [PHA-680632] | 120 | 30 ± 20 | 6000 ± 2000 | > 10000 | > 10000 | 2000 ± 900 | 5000 ± 900 | 300 ± 200 | 90 ± 10 | 100 ± 60 | lower than the IC50 values for the normal cells, but not as pronounced | 100 ± 50 | 6000 ± 1000 | 1000 ± 500 | 400 ± 200 | 60 ± 20 | 10 | 800 ± 300 | > 10000 | 2000 | IC50 [24]: 135 nM; IC50 [20]: 0.8 nM; IC50 [25]: 300 ± 100 nM; IC50 [23]: 900 ± 90 nM
